This passage reports pest or weed control and melting point results from patent US9549556B2, “Macrocyclic picolinamides as fungicides” (DOW AGROSCIENCES LLC, priority 2013, dated 2017).

Usually melting point stands for the temperature of the solid-liquid transition.

One series deals with Puccinia triticina. The series can be described thus: Wheat brown rust (PUCCRT) disease control on wheat seedlings. Format: in vivo. The settings on record: read-out: PUCCRT disease control rating (% Control); for pest or weed control at 121.5 g/ha: 121.5 g/H, low volume (track spray) application; for pest or weed control at 100 ppm: high volume application.
The test system of a further series is Septoria tritici. The series can be described thus: Leaf blotch of wheat (SEPTTR) disease control on wheat seedlings. Format: in vivo, Mycosphaerella graminicola (anamorph Septoria tritici). The following applies: Zymoseptoria tritici, read-out: SEPTTR disease control rating (% Control); for pest or weed control at 121.5 g/ha: 121.5 g/H, low volume (track spray) application; for pest or weed control at 100 ppm: high volume application. The procedure: Evaluation of Fungicidal Activity: Leaf Blotch of Wheat (Mycosphaerella graminicola; Anamorph: Septoria tritici; Bayer Code […]) Technical grades of materials were dissolved in acetone, which were then mixed with nine volumes of water containing 110 ppm Triton X-100. The fungicide solutions were applied onto wheat seedlings using an automated booth sprayer to run-off. All sprayed plants were allowed to air dry prior to further handling. All fungicides were evaluated using the aforementioned method for their activity vs. all target diseases. Wheat leaf blotch and brown rust activity were also evaluated using track spray applications, in which case the fungicides were formulated as EC formulations, containing 0.1% Trycol 5941 in the spray solutions. Wheat plants (variety Yuma) were grown from seed in a greenhouse in 50% mineral soil/50% soil-less Metro mix until the first leaf was fully emerged, with 7-10 seedlings per pot. These plants were inoculated with an aqueous spore suspension of Septoria tritici either prior to or after fungicide treatments. After inoculation the plants were kept in 100% relative humidity (one day in a dark dew chamber followed by two to three days in a lighted dew chamber at 20° C.) to permit spores to germinate and infect the leaf. The plants were then transferred to a greenhouse set at 20° C. for disease to develop. When disease symptoms were fully expressed on the 1st leaves of untreated plants, infection levels were assessed on a scale of 0 to 100 percent disease severity. Percent disease control was calculated using the ratio of disease severity on treated plants relative to untreated plants.

Where two headings read alike, the source gives them in different places.

The compound `COc1ccnc(C(=O)N[C@H]2COC[C@H](Oc3ccccc3)[C@@H](CCC(C)C)[C@H](C)OC2=O)c1OCOC(C)=O` [Compound 32] yielded a melting point of 44 to 50 °C. Also, the pest or weed control at 121.5 g/ha in the series with Puccinia triticina (24 h, 1DP (1 Day Protectant)) is over 70%. The pest or weed control at 121.5 g/ha in the series with Puccinia triticina (72 h, 3DC (3 Day Curative)) is over 70%. The pest or weed control at 121.5 g/ha in the series on Septoria tritici (24 h, 1DP (1 Day Protectant)) is over 70%. The pest or weed control at 121.5 g/ha with Septoria tritici (72 h, 3DC (3 Day Curative)) was over 70%.
The compound `CCCO[C@H]1COC[C@H](NC(=O)OC(C)(C)C)C(=O)O[C@@H](C)[C@@H]1CCC(C)C` [Compound 39, tert-butyl ((3S,7R,8S,9S)-8-isopentyl-9-methyl-2-oxo-7-propoxy-1,5-dioxonan-3-yl)carbamate] had a melting point of 74 to 77 °C.
As to `CC(C)CC[C@H]1[C@H](C)OC(=O)[C@@H](NC(=O)OC(C)(C)C)COC[C@@H]1OCc1ccccc1` [Compound 42], the melting point lay within 70 to 72 °C.
The compound `COc1ccnc(C(=O)N[C@H]2COC[C@H](OCc3ccccc3)[C@@H](CCC(C)C)[C@H](C)OC2=O)c1O` [Compound 46] yielded a melting point of 104 to 106 °C. The pest or weed control at 100 ppm in the series with Puccinia triticina (24 h, 1DP (1 Day Protectant)) was over 70%. The pest or weed control at 100 ppm in the series with Puccinia triticina (72 h, 3DC (3 Day Curative)) is over 70%. The pest or weed control at 100 ppm in the series on Septoria tritici (24 h, 1DP (1 Day Protectant)) is over 70%. Further, the pest or weed control at 100 ppm with Septoria tritici (72 h, 3DC (3 Day Curative)) was under 70%.
In turn, `CC(C)CC[C@H]1[C@H](C)OC(=O)[C@@H](NC(=O)OC(C)(C)C)COC[C@@H]1OC(=O)C1CC1` [Compound 49, (3S,7R,8S,9S)-3-((tert-butoxycarbonyl)amino)-8-isopentyl-9-methyl-2-oxo-1,5-dioxonan-7-yl cyclopropanecarboxylate] gave a melting point of 92 to 95 °C.
Regarding `CCCO[C@H]1COC[C@H](NC(=O)c2nccc(OC)c2O)C(=O)O[C@@H](C)[C@@H]1CCC(C)C` [Compound 53, 3-hydroxy-N-((3S,7R,8S,9S)-8-isopentyl-9-methyl-2-oxo-7-propoxy-1,5-dioxonan-3-yl)-4-methoxypicolinamide], the melting point lay within 54 to 57 °C. Besides, in the series with Puccinia triticina (24 h, 1DP (1 Day Protectant)), the pest or weed control at 100 ppm was over 70%. Also, in the series with Puccinia triticina (72 h, 3DC (3 Day Curative)), the pest or weed control at 100 ppm was over 70%. Besides, in the series on Septoria tritici (24 h, 1DP (1 Day Protectant)), the pest or weed control at 100 ppm was under 70%. The pest or weed control at 100 ppm in the series on Septoria tritici (72 h, 3DC (3 Day Curative)) was under 70%.
In the case of `COc1ccnc(C(=O)N[C@H]2COC[C@H](OC(=O)C3CC3)[C@@H](CCC(C)C)[C@H](C)OC2=O)c1OCOC(C)=O` [Compound 57], the melting point is 45 to 50 °C. Besides, the pest or weed control at 121.5 g/ha in the series on Puccinia triticina (24 h, 1DP (1 Day Protectant)) is over 70%. In the series on Puccinia triticina (72 h, 3DC (3 Day Curative)), the pest or weed control at 121.5 g/ha is over 70%. Also, the pest or weed control at 121.5 g/ha in the series on Septoria tritici (24 h, 1DP (1 Day Protectant)) is under 70%. In addition, in the series with Septoria tritici (72 h, 3DC (3 Day Curative)), the pest or weed control at 121.5 g/ha was over 70%.
Compound `COc1ccnc(C(=O)N[C@H]2COC[C@H](Oc3ccccc3)[C@@H](CCC(C)C)[C@H](C)OC2=O)c1O` [Compound 60] displayed a melting point of 58 to 62 °C. In the series on Puccinia triticina (24 h, 1DP (1 Day Protectant)), the pest or weed control at 100 ppm is over 70%. The pest or weed control at 100 ppm in the series on Puccinia triticina (72 h, 3DC (3 Day Curative)) was over 70%. For the same compound, in the series with Septoria tritici (24 h, 1DP (1 Day Protectant)), the pest or weed control at 100 ppm was over 70%. For the same compound, the pest or weed control at 100 ppm in the series on Septoria tritici (72 h, 3DC (3 Day Curative)) was under 70%.
As for `CCCO[C@H]1COC[C@H](NC(=O)c2nccc(OC)c2OCOC(C)=O)C(=O)O[C@@H](C)[C@@H]1Cc1ccc(F)cc1` [Compound 62], the pest or weed control at 121.5 g/ha with Puccinia triticina (24 h, 1DP (1 Day Protectant)) was over 70%; with Puccinia triticina (72 h, 3DC (3 Day Curative)) it was over 70%; with Septoria tritici (24 h, 1DP (1 Day Protectant)), over 70%; in the series with Septoria tritici (72 h, 3DC (3 Day Curative)), over 70%.
Take `COc1ccnc(C(=O)N[C@H]2COC[C@H](Oc3ccc(C)cc3)[C@@H](Cc3ccc(F)cc3)[C@H](C)OC2=O)c1OCOC(C)=O` [Compound 64]: the pest or weed control at 121.5 g/ha in the series on Puccinia triticina (24 h, 1DP (1 Day Protectant)) was over 70%; in the series on Puccinia triticina (72 h, 3DC (3 Day Curative)), under 70%; in the series with Septoria tritici (24 h, 1DP (1 Day Protectant)), over 70%; in the series on Septoria tritici (72 h, 3DC (3 Day Curative)), over 70%.
Regarding `CCCC[C@H]1[C@H](C)OC(=O)[C@@H](NC(=O)c2nccc(OC)c2O)COC[C@@H]1OCCCC(F)(F)F` [Compound 65], the pest or weed control at 100 ppm in the series with Puccinia triticina (24 h, 1DP (1 Day Protectant)) was over 70%; in the series with Puccinia triticina (72 h, 3DC (3 Day Curative)), under 70%; in the series with Septoria tritici (24 h, 1DP (1 Day Protectant)), over 70%; in the series on Septoria tritici (72 h, 3DC (3 Day Curative)), over 70%.
